Assay results reported in US8466284B2, “Some 2-pyrazinone derivatives and their use as inhibitors of neutrophile elastase” (Astra Zeneca AB, priority 2007, dated 2013).

Experiments:
[1] = molecular target: T1, Human Neutrophil Elastase (HNE) (Homo sapiens, UniProt P08246); experiment: Human Neutrophil Elastase Quenched-FRET Assay; type: biochemical; settings: 1.7 nM HNE, 100 μM MeOSuc-AAPV-AMC, 15 min pre-incubation, 30 min at room temperature; read-out: Inhibition of Human Neutrophil Elastase IC50
T1 construct: Human Neutrophil Elastase (HNE) purified from serum; purchased Calbiochem 324681; host or cells: purified from serum (natural human source, not recombinant)
T1 sequence (P08246 30-247 limits assumed): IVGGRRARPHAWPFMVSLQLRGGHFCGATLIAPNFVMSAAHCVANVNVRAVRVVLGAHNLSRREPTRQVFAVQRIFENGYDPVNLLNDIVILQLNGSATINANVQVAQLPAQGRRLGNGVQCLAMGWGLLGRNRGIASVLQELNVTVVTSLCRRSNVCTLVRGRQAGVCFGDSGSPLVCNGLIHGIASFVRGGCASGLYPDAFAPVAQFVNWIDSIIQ
Experimental: Human Neutrophil Elastase Quenched-FRET Assay
The assay uses Human Neutrophil Elastase (HNE) purified from serum (Calbiochem art. 324681; Ref. Baugh, R. J. et al., 1976, Biochemistry. 15, 836-841). HNE was stored in 50 mM sodium acetate (NaOAc), 200 mM sodium chloride (NaCl), pH 5.5 with added 30% glycerol at −20° C. The protease substrate used was Elastase Substrate V Fluorogenic, MeOSuc-AAPV-AMC (Calbiochem art. 324740; Ref. Castillo, M. J. et al., 1979, Anal. Biochem. 99, 53-64). The substrate was stored in dimethyl sulphoxide (DMSO) at −20° C. The assay additions were as follows: Test compounds and controls were added to black 96-well flat-bottom plates (Greiner 655076), 1 μL in 100% DMSO, followed by 30 μL HNE in assay buffer with 0.01% Triton (trade mark) X-100 detergent. The assay buffer constitution was: 100 mM Tris(hydroxymethyl)aminomethane (TRIS) (pH 7.5) and 500 mM NaCl. The enzyme and the compounds were incubated at room temperature for 15 minutes. Then 30 μl substrate in assay buffer was added. The assay was incubated for 30 minutes at room temperature. The concentrations of HNE enzyme and substrate during the incubation were 1.7 nM and 100 μM, respectively. The assay was then stopped by adding […] stop solution (140 mM acetic acid, 200 mM sodium monochloroacetate, 60 mM sodium acetate, pH 4.3). Fluorescence was measured on a Wallac 1420 Victor 2 instrument at settings: Excitation 380 nm, Emission 460 nm. IC50 values were determined using Xlfit curve fitting using model 205.

[2] = Thermal behaviour of the solid (DSC / TGA); type: physicochemical; settings: solid state
Experimental: Using standard methods, for example those described in Höhne, G. W. H. et al (1996), Differential Scanning Calorimetry, Springer, Berlin, the calorimetric response of a test sample to increasing temperature was investigated using a TA Instruments Q2000 Modulated Temperature Differential Scanning Calorimeter (MTDSC). Measurements were performed between 15 and 300° C. using a modulation of ±0.50° C. in intervals of 40 seconds and a ramp rate of 5° C. per minute. Approximately 1 to 5 mg of test sample was placed in aluminium cups with lids (no crimping) under a nitrogen atmosphere.
Gravimetric Analysis (TGA)
The gravimetric response of test samples to increasing temperatures was investigated using a Q500 Thermal Gravimetric Analyser (TGA) (TA Instruments). The samples were heated in a flow of nitrogen gas with a heating rate of 10° C./min.
Approximately 1 to 3 mg of the test sample was placed in the cup and heated to approximately 300° C.

[3] = Humidity interaction (Gravimetrical Vapour Sorption); type: physicochemical; settings: 0 to 80% relative humidity (RH) at 25° C.
Experimental: is The gravimetric responses of test samples to changes in humidity were investigated using a TGA 5000 (TA Instruments) Gravimetrical Vapour Sorption (GVS). The relative humidity (RH) was raised in steps of 5% to 90% RH and lowered back to 0% RH in two cycles. Each level of RH was held until the equilibrium condition (sample weight change<0.01 wt % per 10 minutes) was reached. Measurements were normally made at 25° C. Approximately 5 mg of the test sample was placed in the cup and evaluated. The hygroscopicity was calculated as the relative change in weight of the sample between the two conditions 0% RH and 80% RH during the second cycle.

IC50 [1] [nM] | Structure (SMILES) | thermally stable below (no solvent loss nor other thermal event prior to melting) [2] | water uptake (hygroscopicity) [3] [wt %]
 | Cc1c(-c2ccnn2-c2ccc(C#N)cc2)nc(C(N)=O)c(=O)n1-c1cccc(C(F)(F)F)c1 [Example 1a, 6-[1-(4-Cyanophenyl)-1H-pyrazol-5-yl]-5-methyl-3-oxo-4-[3-(trifluoromethyl)phenyl]-3,4-dihydropyrazine-2-carboxamide Form A] | below 260 °C | < 0.2
11 | Cc1c(-c2ccnn2-c2ccc(Cl)cc2)nc(C(N)=O)c(=O)n1-c1cccc(C(F)(F)F)c1 [Example 2, 6-[1-(4-Chlorophenyl)-1H-pyrazol-5-yl]-5-methyl-3-oxo-4-[3-(trifluoromethyl)phenyl]-3,4-dihydropyrazine-2-carboxamide] |  | 
28 | Cc1c(-c2ccnn2-c2ccc(Cl)cn2)nc(C(N)=O)c(=O)n1-c1cccc(C(F)(F)F)c1 [Example 3, 6-[1-(5-Chloropyridin-2-yl)-1H-pyrazol-5-yl]-5-methyl-3-oxo-4-[3-(trifluoromethyl)phenyl]-3,4-dihydropyrazine-2-carboxamide] |  | 
3.5 | Cc1cc(-c2nc(C(N)=O)c(=O)n(-c3cccc(C(F)(F)F)c3)c2C)n(-c2ccc(C#N)cc2)n1 [Example 4, 6-[1-(4-Cyanophenyl)-3-methyl-1H-pyrazol-5-yl]-5-methyl-3-oxo-4-[3-(trifluoromethyl)phenyl]-3,4-dihydropyrazine-2-carboxamide] |  | 
4.2 | Cc1c(-c2ccnn2-c2ccc(C#N)cc2)nc(C(=O)NC2CC2)c(=O)n1-c1cccc(C#N)c1 [Example 5, 4-(3-Cyanophenyl)-6-[1-(4-cyanophenyl)-1H-pyrazol-5-yl]-N-cyclopropyl-5-methyl-3-oxo-3,4-dihydropyrazine-2-carboxamide] |  | 
1.4 | Cc1c(C2=NC(C)(C)CN2c2ccc(C#N)cc2)nc(C(N)=O)c(=O)n1-c1cccc(C(F)(F)F)c1 [Example 6, 6-(1-(4-Cyanophenyl)-4,4-dimethyl-4,5-dihydro-1H-imidazol-2-yl)-5-methyl-3-oxo-4-(3-(trifluoromethyl)phenyl)-3,4-dihydropyrazine-2-carb oxamide] |  | 

Structure (SMILES) | IC50 [1] [nM] | thermally stable below (no solvent loss nor other thermal event prior to melting) [2] | water uptake (hygroscopicity) [3] [wt %]
Cc1c(-c2ccnn2-c2ccc(C#N)cc2)nc(C(N)=O)c(=O)n1-c1cccc(C(F)(F)F)c1 [Example 1 or 1a, 6-[1-(4-Cyanophenyl)-1H-pyrazol-5-yl]-5-methyl-3-oxo-4-[3-(trifluoromethyl)phenyl]-3,4-dihydropyrazine-2-carboxamide] | 2.2 |  | 
